{
  "source": "patent US20240360082A1",
  "about": "“SUBSTITUTED PYRIDONE COMPOUNDS USEFUL TO TREAT ORTH[…]” (priority 2021, published 2024)",
  "data": [
    {"biological_target": "influenza A virus minigenome (PB2, PB1, PA, NP proteins) (UniProt P04665)", "sequence (P04665 whole entry)": "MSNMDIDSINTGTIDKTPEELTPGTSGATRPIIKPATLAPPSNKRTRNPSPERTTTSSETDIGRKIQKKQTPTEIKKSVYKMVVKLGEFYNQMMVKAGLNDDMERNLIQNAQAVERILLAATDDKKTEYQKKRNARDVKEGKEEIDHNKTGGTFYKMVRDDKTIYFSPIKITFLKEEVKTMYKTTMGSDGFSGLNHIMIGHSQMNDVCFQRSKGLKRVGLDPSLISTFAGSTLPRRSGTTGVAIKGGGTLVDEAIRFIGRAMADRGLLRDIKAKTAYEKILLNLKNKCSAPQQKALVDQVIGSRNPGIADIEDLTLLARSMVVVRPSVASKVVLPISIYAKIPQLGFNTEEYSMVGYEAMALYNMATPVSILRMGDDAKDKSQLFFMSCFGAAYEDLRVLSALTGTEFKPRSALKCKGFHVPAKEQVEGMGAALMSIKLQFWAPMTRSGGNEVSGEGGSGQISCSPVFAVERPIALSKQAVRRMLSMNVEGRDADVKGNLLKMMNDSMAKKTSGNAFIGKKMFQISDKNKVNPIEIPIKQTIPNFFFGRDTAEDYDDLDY", "format": "cell-based", "settings": "read-out: RNP_ Hubei B IC50", "units": {"IC50": "µM"}, "values": [
      {"compound": "NC(=O)c1cc(-c2ccc(OCC3COCC(COCC(F)F)O3)cc2)c(C(F)(F)F)[nH]c1=O", "note": "(single isomer, unassigned) [Example 369, 5-(4-((6-((2,2-difluoroethoxy)methyl)-1,4-dioxan-2-yl)methoxy)phenyl)-2-oxo-6-(trifluoromethyl)-1,2-dihydropyridine-3-carboxamide]", "IC50": "5 to 10"},
      {"compound": "COC(C)(C)COCC1COCC(COc2ccc(-c3cc(C(N)=O)c(=O)[nH]c3C(F)(F)F)cc2)O1", "note": "(single isomer, unassigned) [Example 370, 5-(4-((6-((2-methoxy-2-methylpropoxy)methyl)-1,4-dioxan-2-yl)methoxy)phenyl)-2-oxo-6-(trifluoromethyl)-1,2-dihydropyridine-3-carboxamide]", "IC50": "5 to 10"},
      {"compound": "COC(C)(C)COCC1COCC(COc2ccc(-c3cc(C(N)=O)c(=O)[nH]c3C(F)(F)F)cc2)O1", "note": "(single isomer, unassigned) [Example 371, 5-(4-((6-((2-methoxy-2-methylpropoxy)methyl)-1,4-dioxan-2-yl)methoxy)phenyl)-2-oxo-6-(trifluoromethyl)-1,2-dihydropyridine-3-carboxamide]", "IC50": "5 to 10"},
      {"compound": "NC(=O)c1cc(-c2ccc(OCC3COCC(COC(F)(F)F)O3)cc2)c(C(F)(F)F)[nH]c1=O", "note": "(single isomer, unassigned) [Example 372, 2-oxo-5-(4-((6-((trifluoromethoxy)methyl)-1,4-dioxan-2-yl)methoxy)phenyl)-6-(trifluoromethyl)-1,2-dihydropyridine-3-carboxamide]", "IC50": "1 to 5"},
      {"compound": "NC(=O)c1cc(-c2ccc(OCC3COCC(COC(F)(F)F)O3)cc2)c(C(F)(F)F)[nH]c1=O", "note": "(single isomer, unassigned) [Example 373, 2-oxo-5-(4-((6-((trifluoromethoxy)methyl)-1,4-dioxan-2-yl)methoxy)phenyl)-6-(trifluoromethyl)-1,2-dihydropyridine-3-carboxamide]", "IC50": "5 to 10"},
      {"compound": "NC(=O)c1cc(-c2ccc(OCC3COCC(Cn4cccc4)O3)cc2)c(C(F)(F)F)[nH]c1=O", "note": "(single isomer, unassigned) [Example 374, 5-(4-((6-((1H-pyrrol-1-yl)methyl)-1,4-dioxan-2-yl)methoxy)phenyl)-2-oxo-6-(trifluoromethyl)-1,2-dihydropyridine-3-carboxamide]", "IC50": "5 to 10"},
      {"compound": "NC(=O)c1cc(-c2ccc(OCC3COCC(Cn4cccc4)O3)cc2)c(C(F)(F)F)[nH]c1=O", "note": "(single isomer, unassigned) [Example 375, 5-(4-((6-((1H-pyrrol-1-yl)methyl)-1,4-dioxan-2-yl)methoxy)phenyl)-2-oxo-6-(trifluoromethyl)-1,2-dihydropyridine-3-carboxamide]", "IC50": "5 to 10"},
      {"compound": "NC(=O)c1cc(-c2ccc(OCC3COCC(Cn4cccn4)O3)cc2)c(C(F)(F)F)[nH]c1=O", "note": "(single isomer, unassigned) [Example 376, 5-(4-((6-((1H-pyrazol-1-yl)methyl)-1,4-dioxan-2-yl)methoxy)phenyl)-2-oxo-6-(trifluoromethyl)-1,2-dihydropyridine-3-carboxamide]", "IC50": "5 to 10"},
      {"compound": "NC(=O)c1cc(-c2ccc(OCC3COCC(Cn4cccn4)O3)cc2)c(C(F)(F)F)[nH]c1=O", "note": "(single isomer, unassigned) [Example 377, 5-(4-((6-((1H-pyrazol-1-yl)methyl)-1,4-dioxan-2-yl)methoxy)phenyl)-2-oxo-6-(trifluoromethyl)-1,2-dihydropyridine-3-carboxamide]", "IC50": "5 to 10"},
      {"compound": "CC1(OCC2COCC(COc3ccc(-c4cc(C(N)=O)c(=O)[nH]c4C(F)(F)F)cc3)O2)COC1", "note": "(single isomer, unassigned) [Example 378]", "IC50": "5 to 10"},
      {"compound": "CC1(OCC2COCC(COc3ccc(-c4cc(C(N)=O)c(=O)[nH]c4C(F)(F)F)cc3)O2)COC1", "note": "(single isomer, unassigned) [Example 379]", "IC50": "5 to 10"},
      {"compound": "COCC1OC(COc2ccc(-c3cc(C(N)=O)c(=O)[nH]c3C(F)(F)F)cc2)COC1C", "note": "(single isomer, unassigned) [Example 392, 5-(4-((6-(methoxymethyl)-5-methyl-1,4-dioxan-2-yl)methoxy)phenyl)-2-oxo-6-(trifluoromethyl)-1,2-dihydropyridine-3-carboxamide]", "IC50": "5 to 10"},
      {"compound": "COCC1OC(COc2ccc(-c3cc(C(N)=O)c(=O)[nH]c3C(F)(F)F)cc2)COC1C", "note": "(single isomer, unassigned) [Example 393, 5-(4-((6-(methoxymethyl)-5-methyl-1,4-dioxan-2-yl)methoxy)phenyl)-2-oxo-6-(trifluoromethyl)-1,2-dihydropyridine-3-carboxamide]", "IC50": "5 to 10"},
      {"compound": "COC[C@@H]1COC[C@H](COc2ccc(-c3cc(C(N)=O)c(=O)[nH]c3C(F)(F)F)cc2)O1", "note": "(single isomer, unassigned) [Example 400]", "IC50": "5 to 10"},
      {"compound": "COC[C@H]1COC[C@H](COc2ccc(-c3cc(C(N)=O)c(=O)[nH]c3C(F)(F)F)cc2)O1", "note": "(single isomer, unassigned) [Example 401]", "IC50": "5 to 10"}
    ]},
    {"biological_target": "influenza A virus minigenome (PB2, PB1, PA, NP proteins) (UniProt P04665)", "format": "cell-based", "settings": "read-out: RNP_Hubei B", "units": {"IC50": "µM"}, "values": [
      {"compound": "NC(=O)c1cc(-c2ccc(CN3CCOCC3)cc2)c(C(F)(F)F)[nH]c1=O", "note": "[Example 1, 5-(4-(morpholinomethyl)phenyl)-2-oxo-6-(trifluoromethyl)-1,2-dihydropyridine-3-carboxamide]", "IC50": "25 to 50"},
      {"compound": "NC(=O)c1cc(-c2ccc(CO)cc2)c(C(F)(F)F)[nH]c1=O", "note": "[Example 2, 5-(4-(hydroxymethyl)phenyl)-2-oxo-6-(trifluoromethyl)-1,2-dihydropyridine-3-carboxamide]", "IC50": "25 to 50"},
      {"compound": "NC(=O)c1cc(-c2ccc(O)cc2)c(C(F)(F)F)[nH]c1=O", "note": "[Example 3, 5-(4-hydroxyphenyl)-2-oxo-6-(trifluoromethyl)-1,2-dihydropyridine-3-carboxamide]", "IC50": "25 to 50"},
      {"compound": "NC(=O)c1cc(-c2ccc(OCc3ccccc3)cc2)c(C(F)(F)F)[nH]c1=O", "note": "[Example 4, 5-(4-(benzyloxy)phenyl)-2-oxo-6-(trifluoromethyl)-1,2-dihydropyridine-3-carboxamide]", "IC50": "5 to 10"},
      {"compound": "NC(=O)c1cc(-c2ccc(CN3CCCC3)cc2)c(C(F)(F)F)[nH]c1=O", "note": "[Example 5, 2-oxo-5-(4-(pyrrolidin-1-ylmethyl)phenyl)-6-(trifluoromethyl)-1,2-dihydropyridine-3-carboxamide]", "IC50": "25 to 50"},
      {"compound": "NC(=O)c1cc(-c2ccc(Oc3ccccc3)cc2)c(C(F)(F)F)[nH]c1=O", "note": "[Example 6, 2-oxo-5-(4-phenoxyphenyl)-6-(trifluoromethyl)-1,2-dihydropyridine-3-carboxamide]", "IC50": "1 to 5"},
      {"compound": "NC(=O)c1cc(-c2cccc(N)c2)c(C(F)(F)F)[nH]c1=O", "note": "[Example 7, 5-(3-aminophenyl)-2-oxo-6-(trifluoromethyl)-1,2-dihydropyridine-3-carboxamide]", "IC50": "25 to 50"},
      {"compound": "NC(=O)c1cc(-c2cccc(O)c2)c(C(F)(F)F)[nH]c1=O", "note": "[Example 9, 5-(3-hydroxyphenyl)-2-oxo-6-(trifluoromethyl)-1,2-dihydropyridine-3-carboxamide]", "IC50": "25 to 50"},
      {"compound": "COCOc1ccc(-c2cc(C(N)=O)c(=O)[nH]c2C(F)(F)F)cc1", "note": "[Example 13, 5-(4-(methoxymethoxy)phenyl)-2-oxo-6-(trifluoromethyl)-1,2-dihydropyridine-3-carboxamide]", "IC50": "25 to 50"},
      {"compound": "COCc1ccc(-c2cc(C(N)=O)c(=O)[nH]c2C(F)(F)F)cc1", "note": "[Example 15, 5-(4-(methoxymethyl)phenyl)-2-oxo-6-(trifluoromethyl)-1,2-dihydropyridine-3-carboxamide]", "IC50": "25 to 50"},
      {"compound": "NC(=O)c1cc(-c2ccccc2)c(C(F)(F)F)[nH]c1=O", "note": "[Example 16, 2-oxo-5-phenyl-6-(trifluoromethyl)-1,2-dihydropyridine-3-carboxamide]", "IC50": "25 to 50"},
      {"compound": "CC(C)Oc1ccc(-c2cc(C(N)=O)c(=O)[nH]c2C(F)(F)F)cc1", "note": "[Example 17, 5-(4-isopropoxyphenyl)-2-oxo-6-(trifluoromethyl)-1,2-dihydropyridine-3-carboxamide]", "IC50": "10 to 25"},
      {"compound": "COc1ccc(-c2cc(C(N)=O)c(=O)[nH]c2C(F)(F)F)cc1Cl", "note": "[Example 18, 5-(3-chloro-4-methoxyphenyl)-2-oxo-6-(trifluoromethyl)-1,2-dihydropyridine-3-carboxamide]", "IC50": "10 to 25"},
      {"compound": "N#CCc1ccc(-c2cc(C(N)=O)c(=O)[nH]c2C(F)(F)F)cc1", "note": "[Example 20, 5-(4-(cyanomethyl)phenyl)-2-oxo-6-(trifluoromethyl)-1,2-dihydropyridine-3-carboxamide]", "IC50": "25 to 50"},
      {"compound": "CC1COCCN1Cc1ccc(-c2cc(C(N)=O)c(=O)[nH]c2C(F)(F)F)cc1", "note": "(centres unmarked) [Example 27, 5-(4-((3-methylmorpholino)methyl)phenyl)-2-oxo-6-(trifluoromethyl)-1,2-dihydropyridine-3-carboxamide]", "IC50": "10 to 25"},
      {"compound": "NC(=O)c1cc(-c2ccc(CN3CCSCC3)cc2)c(C(F)(F)F)[nH]c1=O", "note": "[Example 28, 2-oxo-5-(4-(thiomorpholinomethyl)phenyl)-6-(trifluoromethyl)-1,2-dihydropyridine-3-carboxamide]", "IC50": "1 to 5"},
      {"compound": "CC1CN(Cc2ccc(-c3cc(C(N)=O)c(=O)[nH]c3C(F)(F)F)cc2)CCO1", "note": "(centres unmarked) [Example 29, 5-(4-((2-methylmorpholino)methyl)phenyl)-2-oxo-6-(trifluoromethyl)-1,2-dihydropyridine-3-carboxamide]", "IC50": "10 to 25"},
      {"compound": "NC(=O)c1cc(-c2ccc(CN3CCOCC34CC4)cc2)c(C(F)(F)F)[nH]c1=O", "note": "[Example 30, 5-(4-((7-oxa-4-azaspiro[2.5]octan-4-yl)methyl)phenyl)-2-oxo-6-(trifluoromethyl)-1,2-dihydropyridine-3-carboxamide]", "IC50": "5 to 10"},
      {"compound": "NC(=O)c1cc(-c2ccc(CN3C[C@H]4CC[C@@H](C3)O4)cc2)c(C(F)(F)F)[nH]c1=O", "note": "[Example 31, 5-(4-(((1R,5S)-8-oxa-3-azabicyclo[3.2.1]octan-3-yl)methyl)phenyl)-2-oxo-6-(trifluoromethyl)-1,2-dihydropyridine-3-carboxamide]", "IC50": "1 to 5"},
      {"compound": "NC(=O)c1cc(-c2ccc(CN3CCOCC3c3cccnc3)cc2)c(C(F)(F)F)[nH]c1=O", "note": "(centres unmarked) [Example 32, 2-oxo-5-(4-((3-(pyridin-3-yl)morpholino)methyl)phenyl)-6-(trifluoromethyl)-1,2-dihydropyridine-3-carboxamide]", "IC50": "25 to 50"}
    ]}
  ]
}
